Reference: publication PMC6401853, “Fabrication of Carbohydrate Chips Based on Polydopamine for Real-Time Determination of Carbohydrate–Lectin Interactions by QCM Biosensor” (Polymers, 2018)

Target: wheat germ agglutinin (WGA)
Experiment: QCM biosensor kinetics, lectin over immobilized amino-GlcNAc derivative on polydopamine chip, […] fit
Assay type: binding

## CC(=O)N[C@H]1C(O)O[C@H](CO)[C@@H](O)[C@@H]1O (stereo partly shown) [N-Acetylglucosamine]
  Kd: 47.2 nM
